Data reported in DBAASP.
Converted amounts (≈) assume the structure as drawn. “And” between values parts separate entries of the source, which are not always exact repeats. Equal values may be shown once.

Key:
Test in all cases: ≥ marks a high value that may be exact or a test limit, other limits are often not marked, values filed in µg/mL are converted to µM
Acinetobacter baumannii = test system: Acinetobacter baumannii
[1] = test system: Bacillus cereus CGMCC 1.932
[2] = test system: Bacillus subtilis CMCC 63501
[3] = test system: Enterococcus faecalis ATCC 29212
Escherichia coli 078 = test system: Escherichia coli 078
Escherichia coli K88 = test system: Escherichia coli K88
Escherichia coli K99 = test system: Escherichia coli K99
Escherichia coli UB1005 = test system: Escherichia coli UB1005
[4] = test system: Listeria monocytogenes CGMCC 1.1075
[5] = test system: Pseudomonas aeruginosa ATCC 27853
[6] = test system: Pseudomonas aeruginosa PAO1
[7] = test system: Salmonella enterica subsp. enterica serovar Pullorum ATCC 7913
[8] = test system: Salmonella enterica subsp. enterica serovar Typhimurium ATCC 14028
[9] = test system: Salmonella typhimurium ATCC 7731
[10] = test system: Staphylococcus aureus ATCC 25923
[11] = test system: Staphylococcus aureus ATCC 43300
[12] = test system: Staphylococcus epidermidis ATCC 12228
[13] = test system: Candida albicans CGMCC 2.2086
Candida albicans = test system: Candida albicans
[14] = test system: Candida parapsilosis CGMCC 2.3989
[15] = test system: Candida tropicalis CGMCC 2.1975
[16] = test system: Salmonella enterica subsp. enterica serovar Choleraesuis CVCC 503
[17] = test system: Salmonella enterica subsp. enterica serovar Typhimurium C77-31
[18] = test system: Staphylococcus aureus ATCC 29213
[19] = test system: Pseudomonas aeruginosa H1001

| Structure (SMILES) | MIC (Acinetobacter baumannii) [µM] | MIC [1] [µM] | MIC [2] [µM] | MIC [3] [µM] | MIC (Escherichia coli 078) [µM] | MIC (Escherichia coli K88) [µM] | MIC (Escherichia coli K99) [µM] | MIC (Escherichia coli UB1005) [µM] | MIC [4] [µM] | MIC [5] [µM] | MIC [6] [µM] | MIC [7] [µM] | MIC [8] [µM] | MIC [9] [µM] | MIC [10] [µM] | MIC [11] [µM] | MIC [12] [µM] | MIC [19] [µM] | further results |
| --- | --- | --- | --- | --- | --- | --- | --- | --- | --- | --- | --- | --- | --- | --- | --- | --- | --- | --- | --- |
| CC(C)C[C@H](NC(=O)[C@H](CCCN=C(N)N)NC(=O)[C@H](Cc1c[nH]c2ccccc12)NC(=O)[C@H](CCCN=C(N)N)NC(=O)[C@H](Cc1c[nH]c2ccccc12)NC(=O)[C@H](Cc1c[nH]c2ccccc12)NC(=O)[C@H](Cc1c[nH]c2ccccc12)NC(=O)[C@H](CCCN=C(N)N)NC(=O)[C@H](Cc1c[nH]c2ccccc12)NC(=O)[C@H](CCCN=C(N)N)NC(=O)CN)C(N)=O [GRWRWWWRWRL] | 1 (≈ 1.74 µg/mL) | 8 (≈ 13.9 µg/mL) | 4 (≈ 6.97 µg/mL) | > 32 | 2 (≈ 3.49 µg/mL) | 2 (≈ 3.49 µg/mL) | 4 (≈ 6.97 µg/mL) | 2 (≈ 3.49 µg/mL) | 2 (≈ 3.49 µg/mL) | 4 (≈ 6.97 µg/mL) | 4 (≈ 6.97 µg/mL) | 2 (≈ 3.49 µg/mL) | 4 (≈ 6.97 µg/mL) | 4 (≈ 6.97 µg/mL) | 2 (≈ 3.49 µg/mL) | 2 (≈ 3.49 µg/mL) | 2 (≈ 3.49 µg/mL) | – | – |
| C[C@H](NC(=O)[C@H](Cc1c[nH]c2ccccc12)NC(=O)[C@H](Cc1c[nH]c2ccccc12)NC(=O)[C@H](CCCN=C(N)N)NC(=O)[C@H](CCCN=C(N)N)NC(=O)[C@H](Cc1c[nH]c2ccccc12)NC(=O)[C@H](CCCN=C(N)N)NC(=O)[C@H](CCCN=C(N)N)NC(=O)[C@H](Cc1c[nH]c2ccccc12)NC(=O)[C@H](Cc1c[nH]c2ccccc12)NC(=O)CN)C(N)=O [GWWRRWRRWWA] | 1 (≈ 1.7 µg/mL) | 2 (≈ 3.4 µg/mL) | 0.5 (≈ 0.85 µg/mL) | 4 (≈ 6.8 µg/mL) | 8 (≈ 13.6 µg/mL) | 2 (≈ 3.4 µg/mL) | 4 (≈ 6.8 µg/mL) | 2 (≈ 3.4 µg/mL) | 2 (≈ 3.4 µg/mL) | 4 (≈ 6.8 µg/mL) | 2 (≈ 3.4 µg/mL) | 2 (≈ 3.4 µg/mL) | 4 (≈ 6.8 µg/mL) | 4 (≈ 6.8 µg/mL) | 2 (≈ 3.4 µg/mL) | 2 (≈ 3.4 µg/mL) | 2 (≈ 3.4 µg/mL) | – | – |

The next lines start with results.

| MIC (Acinetobacter baumannii) [µM] | MIC [1] [µM] | MIC [2] [µM] | MIC [3] [µM] | MIC (Escherichia coli 078) [µM] | MIC (Escherichia coli K88) [µM] | MIC (Escherichia coli K99) [µM] | MIC (Escherichia coli UB1005) [µM] | MIC [4] [µM] | MIC [5] [µM] | MIC [6] [µM] | MIC [7] [µM] | MIC [8] [µM] | MIC [9] [µM] | MIC [10] [µM] | MIC [11] [µM] | MIC [12] [µM] | MIC [19] [µM] | Structure (SMILES) | further results |
| --- | --- | --- | --- | --- | --- | --- | --- | --- | --- | --- | --- | --- | --- | --- | --- | --- | --- | --- | --- |
| – | – | – | 16 (≈ 39.3 µg/mL) | – | – | – | 2 (≈ 4.91 µg/mL) | – | 4 (≈ 9.83 µg/mL) | 4 (≈ 9.83 µg/mL) | – | 4 (≈ 9.83 µg/mL) | – | 16 (≈ 39.3 µg/mL) | 4 (≈ 9.83 µg/mL) | 16 (≈ 39.3 µg/mL) | – | CC(C)C[C@H](NC(=O)[C@H](CCCCN)NC(=O)[C@H](CCCCN)NC(=O)[C@H](CC(C)C)NC(=O)[C@H](CCCN=C(N)N)NC(=O)[C@H](CS)NC(=O)[C@H](C)NC(=O)[C@H](CC(C)C)NC(=O)[C@H](CCCCN)NC(=O)[C@H](CCCCN)NC(=O)[C@H](CC(C)C)NC(=O)[C@H](CCCN=C(N)N)NC(=O)[C@H](CS)NC(=O)[C@H](C)NC(=O)[C@H](CC(C)C)NC(=O)[C@H](CCCCN)NC(=O)[C@H](CCCCN)NC(=O)[C@@H](N)CC(C)C)C(=O)N[C@@H](C)C(=O)N[C@@H](CS)C(=O)N[C@@H](CCCN=C(N)N)C(N)=O [LKKLACRLKKLACRLKKLACR] | MIC [13]: 8 µM and 16 µM; MIC (Candida albicans): 4 µM (≈ 9.83 µg/mL); MIC [14]: 8 µM (≈ 19.7 µg/mL); MIC [15]: 1 µM (≈ 2.46 µg/mL); MIC [16]: 2 µM (≈ 4.91 µg/mL); MIC [17]: 8 µM (≈ 19.7 µg/mL); MIC [18]: 8 µM (≈ 19.7 µg/mL) |
| – | – | – | – | – | – | – | – | – | – | – | – | – | – | – | – | – | 0.106 (≈ 0.26 µg/mL) | CC[C@H](C)[C@H](NC(=O)[C@H](CCCN=C(N)N)NC(=O)[C@H](CCCN=C(N)N)NC(=O)[C@@H]1CCCN1C(=O)[C@@H]1CCCN1C(=O)[C@H](CCCN=C(N)N)NC(=O)[C@@H]1CCCN1C(=O)[C@H](CCCN=C(N)N)NC(=O)[C@@H]1CCCN1C(=O)[C@H](CC(C)C)NC(=O)[C@H](Cc1ccc(O)cc1)NC(=O)[C@@H]1CCCN1C(=O)[C@@H]1CCCN1C(=O)[C@H](CCCCN)NC(=O)[C@H](CC(=O)O)NC(=O)[C@@H](N)C(C)C)C(=O)N[C@@H](Cc1ccc(O)cc1)C(=O)N[C@@H](CCCCN)C(=O)N[C@@H](CCCN=C(N)N)C(=O)NCC(=O)O [VDKPPYLPRPRPPRRIYKRG] | – |
| – | – | – | – | – | – | – | – | – | – | – | – | – | – | – | – | – | 0.0487 (≈ 0.12 µg/mL) | CC(C)C[C@H](NC(=O)[C@H](Cc1ccc(O)cc1)NC(=O)[C@@H]1CCCN1C(=O)[C@@H]1CCCN1C(=O)[C@H](CCCCN)NC(=O)[C@H](CC(=O)O)NC(=O)[C@@H](N)C(C)C)C(=O)N1CCC[C@H]1C(=O)N[C@@H](CCCN=C(N)N)C(=O)N1CCC[C@H]1C(=O)N[C@@H](CCCN=C(N)N)C(=O)N1CCC[C@H]1C(=O)N1CCC[C@H]1C(=O)N[C@@H](CCCN=C(N)N)C(=O)N[C@@H](CCCN=C(N)N)C(=O)N[C@@H](CCCCN)C(=O)N[C@@H](Cc1ccc(O)cc1)C(=O)N[C@@H](CC(N)=O)C(=O)N[C@@H](CCCN=C(N)N)C(=O)NCC(=O)O [VDKPPYLPRPRPPRRKYNRG] | – |
